We go through 25 compounds from patent US11530206B2, “Phenylaminopyrimidine amide autophagy inhibitors and methods of use thereof” (Deciphera Pharmaceuticals, LLC, priority 2019, dated 2022).

One assay addresses T1, ULK1 kinase (Homo sapiens, UniProt O75385).
T1 construct: purchased Eurofins 14-959
T1 sequence (O75385 with tags, fused parts or gaps): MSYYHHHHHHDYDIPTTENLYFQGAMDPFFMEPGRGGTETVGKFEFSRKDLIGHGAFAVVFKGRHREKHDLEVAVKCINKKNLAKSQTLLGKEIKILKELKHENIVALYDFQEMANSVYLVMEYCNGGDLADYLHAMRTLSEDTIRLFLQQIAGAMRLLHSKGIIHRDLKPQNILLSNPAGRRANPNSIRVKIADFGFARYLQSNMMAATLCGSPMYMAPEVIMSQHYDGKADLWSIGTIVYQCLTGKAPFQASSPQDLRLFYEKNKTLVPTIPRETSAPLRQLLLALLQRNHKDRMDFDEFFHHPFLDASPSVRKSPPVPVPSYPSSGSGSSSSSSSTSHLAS
Kind of assay: Biochemical assay for ULK1.2 (coupled pyruvate kinase/lactate dehydrogenase assay). Conditions: 19 nM ULK1 (residues 1-314, His tag), myelin basic protein, 1 mM ATP. As for the experimental part: Biochemical Assay for ULK1.2 (SEQ. ID NO: 1)
Inhibition of ULK1 was measured by adding serial diluted test compound (final assay concentration of 1% DMSO). A decrease in absorption at 340 nm was monitored continuously for 6 hours at 30° C. on a multi-mode microplate reader (BioTek). The reaction rate was calculated using the 2-3 h time frame. The reaction rate at each concentration of compound was converted to percent inhibition using controls (i.e. reaction with no test compound and reaction with a known inhibitor) and IC50 values were calculated by fitting a four-parameter sigmoidal curve to the data using Prism (GraphPad software).

Another assay concerns the target T2, LRRK2 kinase (Homo sapiens, UniProt Q5S007).
T2 construct: purchased Thermo Fisher
Kind of assay: Biochemical assay for LRRK2 (coupled pyruvate kinase/lactate dehydrogenase assay). Conditions: 26.4 nM LRRK2 (residues 970-2528), peptide substrate, 1 mM ATP. On the procedure: Example 138. Biochemical Assay for LRRK2 (SEQ. ID NO: 4)
Activity of LRRK2 kinase was determined spectroscopically using a coupled pyruvate kinase/lactate dehydrogenase assay that continuously monitors the ATP hydrolysis-dependent oxidation of NADH (e.g., Schindler et al. Science (2000) 289: 1938-1942). Assays were conducted in 384-well plates (100 μL final volume) using 26.4 nM LRRK2 (Thermo Fisher), 0.1 mM peptide substrate ([…] (SEQ ID NO: 6)), 1.5 units pyruvate kinase, 2.1 units lactate dehydrogenase, 1 mM phosphoenol pyruvate, 0.28 mM NADH and 1 mM ATP in assay buffer (100 mM Tris, pH 7.5, 15 mM MgCl2, 0.5 mM DTT, 0.004% (w/v) BSA, and 0.004% Triton X-100). Inhibition of LRRK2 was measured by adding serial diluted test compound (final assay concentration of 1% DMSO). A decrease in absorption at 340 nm was monitored continuously for 6 hours at 30° C. on a multi-mode microplate reader (BioTek). The reaction rate was calculated using the 2-3 h time frame. The reaction rate at each concentration of compound was converted to percent inhibition using controls (i.e. reaction with no test compound and reaction with a known inhibitor) and IC50 values were calculated using software routines in Prism (GraphPad software).

The subject of assay [1] is ULK kinase. Kind of assay: pATG13 levels of mutant KRas A549 cells after treatment with ULK inhibitors in combination with trametinib (ELISA). The class given is cell-based, human. As to conditions: A549 (KRAS mutant) lung cancer cells, 250 nM trametinib, overnight, pS318-ATG13. An outline of the steps: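 Lysates with phosphatase/protease inhibitors assayed by pATG13 ELISA, A450 minus A540 background and blank-corrected. % ATG13 phosphorylation versus DMSO controls fitted to IC50.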
For orientation: An ELISA detects its analyte on a solid surface through an enzyme-linked reagent.

The subject of assay [2] is ULK kinase. Kind of assay: pATG13 levels of mutant KRas MiaPaCa-2 cells after treatment with ULK inhibitors in combination with trametinib (ELISA). The class given is cell-based, human. Conditions: MiaPaCa-2 pancreatic cancer cells, 250 nM trametinib, overnight, pS318-ATG13. The essentials:
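MiaPaCa-2 cells in DMEM with 10% FBS and 2.5% horse serum were pretreated with trametinib or DMSO, then given a test-compound dose response overnight at 37° C. Lysates were assayed for phospho-ATG13 by ELISA (A450 minus A540 background, blank-corrected). % phosphorylation was calculated relative to controls and fitted to IC50.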

In another assay the target is T3, ULK2 kinase (Homo sapiens, UniProt Q8IYT8).
T3 construct: purchased Eurofins 14-772
In words: Biochemical assay for ULK2 (coupled pyruvate kinase/lactate dehydrogenase assay). Conditions: 9.7 nM ULK2 (residues 1-306, GST and His tag), myelin basic protein, 1 mM ATP; read-out: ULK2.2. As for the experimental part: Example 132. Biochemical Assay for ULK2 (SEQ. ID NO: 3)
Activity of ULK2 kinase was determined spectroscopically using a coupled pyruvate kinase/lactate dehydrogenase assay that continuously monitors the ATP hydrolysis-dependent oxidation of NADH (e.g., Schindler et al. Science (2000) 289: 1938-1942). Assays were conducted in 384-well plates (100 uL final volume) using 9.7 nM ULK2 (Eurofins CAT #14-772), 0.25 mg/mL myelin basic protein, 1.5 units pyruvate kinase, 2.1 units lactate dehydrogenase, 1 mM phosphoenol pyruvate, 0.28 mM NADH and 1 mM ATP in assay buffer (100 mM Tris, pH 7.5, 15 mM MgCl2, 0.5 mM DTT, 0.1% octyl-glucoside, 0.002% (w/v) BSA, and 0.002% Triton X-100). Inhibition of ULK2 was measured by adding serial diluted test compound (final assay concentration of 1% DMSO). A decrease in absorption at 340 nm was monitored continuously for 6 hours at 30° C. on a multi-mode microplate reader (BioTek). The reaction rate was calculated using the 2-3 h time frame. The reaction rate at each concentration of compound was converted to percent inhibition using controls (i.e. reaction with no test compound and reaction with a known inhibitor) and IC50 values were calculated by fitting a four-parameter sigmoidal curve to the data using Prism (GraphPad software).

T3 sequence (Q8IYT8 with tags, fused parts or gaps): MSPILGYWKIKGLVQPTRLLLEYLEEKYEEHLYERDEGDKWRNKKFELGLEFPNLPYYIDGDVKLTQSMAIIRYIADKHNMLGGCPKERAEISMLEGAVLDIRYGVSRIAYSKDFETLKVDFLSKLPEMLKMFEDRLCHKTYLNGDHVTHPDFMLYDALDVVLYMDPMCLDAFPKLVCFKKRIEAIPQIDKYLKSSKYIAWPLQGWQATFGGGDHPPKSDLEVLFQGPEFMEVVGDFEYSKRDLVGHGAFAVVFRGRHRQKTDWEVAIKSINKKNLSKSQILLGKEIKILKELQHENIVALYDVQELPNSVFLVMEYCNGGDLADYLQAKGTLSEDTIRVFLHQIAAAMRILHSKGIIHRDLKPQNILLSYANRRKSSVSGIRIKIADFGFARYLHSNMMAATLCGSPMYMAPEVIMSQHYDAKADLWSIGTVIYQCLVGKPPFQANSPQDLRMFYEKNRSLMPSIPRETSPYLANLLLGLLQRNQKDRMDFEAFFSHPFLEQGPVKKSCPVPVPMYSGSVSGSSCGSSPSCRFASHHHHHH
T2 sequence (Q5S007 with tags, fused parts or gaps): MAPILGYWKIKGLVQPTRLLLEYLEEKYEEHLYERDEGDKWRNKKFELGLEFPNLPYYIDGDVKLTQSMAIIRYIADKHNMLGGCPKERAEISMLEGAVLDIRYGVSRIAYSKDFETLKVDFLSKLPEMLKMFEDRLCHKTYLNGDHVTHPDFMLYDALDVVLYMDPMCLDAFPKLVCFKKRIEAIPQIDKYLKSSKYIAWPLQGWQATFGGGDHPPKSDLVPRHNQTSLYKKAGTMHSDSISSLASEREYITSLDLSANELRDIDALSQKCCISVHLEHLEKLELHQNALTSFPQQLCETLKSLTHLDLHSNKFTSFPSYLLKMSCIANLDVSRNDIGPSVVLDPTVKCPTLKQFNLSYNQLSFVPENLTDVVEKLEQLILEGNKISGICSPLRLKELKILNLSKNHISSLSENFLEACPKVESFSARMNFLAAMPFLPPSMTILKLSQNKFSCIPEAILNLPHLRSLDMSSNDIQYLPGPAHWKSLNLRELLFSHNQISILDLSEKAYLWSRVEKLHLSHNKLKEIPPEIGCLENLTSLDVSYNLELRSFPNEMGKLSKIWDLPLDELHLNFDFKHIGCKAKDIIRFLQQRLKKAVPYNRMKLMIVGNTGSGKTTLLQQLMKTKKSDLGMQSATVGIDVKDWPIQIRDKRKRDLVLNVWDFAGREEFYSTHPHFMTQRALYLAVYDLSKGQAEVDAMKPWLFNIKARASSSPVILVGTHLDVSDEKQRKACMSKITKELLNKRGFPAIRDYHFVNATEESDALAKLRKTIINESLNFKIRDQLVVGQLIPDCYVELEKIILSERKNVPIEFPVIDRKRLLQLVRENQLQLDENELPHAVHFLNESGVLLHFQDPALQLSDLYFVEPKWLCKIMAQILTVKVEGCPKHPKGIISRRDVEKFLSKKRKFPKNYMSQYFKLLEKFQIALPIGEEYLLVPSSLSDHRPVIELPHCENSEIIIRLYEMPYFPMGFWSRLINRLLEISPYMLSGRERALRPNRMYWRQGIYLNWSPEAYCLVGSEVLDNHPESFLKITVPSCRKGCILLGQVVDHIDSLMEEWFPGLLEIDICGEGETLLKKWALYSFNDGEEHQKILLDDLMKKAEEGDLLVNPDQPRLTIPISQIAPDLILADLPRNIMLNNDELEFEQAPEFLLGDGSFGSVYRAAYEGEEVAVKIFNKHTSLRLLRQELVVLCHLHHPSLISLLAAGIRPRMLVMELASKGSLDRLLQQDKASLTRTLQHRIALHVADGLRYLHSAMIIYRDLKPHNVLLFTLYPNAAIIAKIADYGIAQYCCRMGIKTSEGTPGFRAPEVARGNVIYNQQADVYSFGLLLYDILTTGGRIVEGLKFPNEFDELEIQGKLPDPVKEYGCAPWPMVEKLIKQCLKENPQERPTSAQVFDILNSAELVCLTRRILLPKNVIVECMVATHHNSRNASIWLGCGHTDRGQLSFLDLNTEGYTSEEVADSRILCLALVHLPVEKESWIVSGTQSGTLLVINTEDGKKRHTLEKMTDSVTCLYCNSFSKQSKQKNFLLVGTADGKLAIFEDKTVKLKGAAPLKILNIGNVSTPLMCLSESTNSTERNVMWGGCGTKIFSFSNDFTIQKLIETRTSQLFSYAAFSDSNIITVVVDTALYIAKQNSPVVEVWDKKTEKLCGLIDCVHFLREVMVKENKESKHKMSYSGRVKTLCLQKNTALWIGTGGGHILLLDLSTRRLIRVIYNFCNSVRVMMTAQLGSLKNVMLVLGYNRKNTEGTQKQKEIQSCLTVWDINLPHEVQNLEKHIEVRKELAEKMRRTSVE

For the compound `CC1(C)CCC(=O)N1CCCNc1nc(Nc2ccc(N3CCN(C4CC4)CC3)cc2)ncc1C1CC1` [Example 1], the IC50 on ULK1 kinase was more than 0.5 µM; against LRRK2 kinase it was more than 0.6 µM.
For `Cc1cc(N2CCN(C)CC2)ccc1Nc1ncc(C(F)(F)F)c(NCCCN2CCCC2=O)n1` [Example 2] the same measures were 0.1 to 0.5 µM and 0.001 to 0.1 µM.
The compound `Cc1cc(N2CCNCC2)ccc1Nc1ncc(C(F)(F)F)c(NCCCN2CCCC2=O)n1` [Example 3] registered an IC50 against ULK1 kinase of 0.1 to 0.5 µM.
Consider `CCc1cc(N2CCN(C)CC2)ccc1Nc1ncc(C(F)(F)F)c(NCCCN2CCCC2=O)n1` [Example 4], for which the IC50 in the assay on ULK kinase [1] was 0.3 to 0.6 µM; against ULK1 kinase, 0.025 to 0.1 µM; with ULK kinase [2], 0.3 to 0.6 µM; at ULK2 kinase, 0.1 to 0.5 µM.
In the case of `Cc1cc(C2CCNCC2)ccc1Nc1ncc(Cl)c(NCCCN2CCCCC2=O)n1` [Example 5], the IC50 against ULK1 kinase was more than 0.5 µM; against LRRK2 kinase it was 0.1 to 0.3 µM.
For `Cc1cc(C2CCN(C)CC2)ccc1Nc1ncc(Cl)c(NCCCN2CCCCC2=O)n1` [Example 6], the IC50 against ULK1 kinase was more than 0.5 µM.
Turning to `Cc1cc(C2CCNCC2)ccc1Nc1ncc(C(F)(F)F)c(NCCCN2CCCCC2=O)n1` [Example 7], the figures for the IC50 with ULK kinase [1], on ULK1 kinase and at ULK2 kinase were more than 0.6 µM, 0.025 to 0.1 µM and 0.1 to 0.5 µM, respectively.
For `Cc1cc(C2CCN(C)CC2)ccc1Nc1ncc(C(F)(F)F)c(NCCCN2CCCCC2=O)n1` [Example 8] the same measures were 0.1 to 0.3 µM, 0.025 to 0.1 µM and 0.1 to 0.5 µM.
With `O=C1CCCCN1CCCNc1nc(Nc2ccc(N3CCCNCC3)cc2)ncc1C(F)(F)F` [Example 9, 1-(3-((2-((4-(1,4-diazepan-1-yl)phenyl)amino)-5-(trifluoromethyl)pyrimidin-4-yl)amino)propyl)piperidin-2-one], the IC50 on ULK1 kinase and at ULK2 kinase was 0.001 to 0.025 µM each time.
On to `CCN1CCCN(c2ccc(Nc3ncc(C(F)(F)F)c(NCCCN4CCCCC4=O)n3)cc2)CC1` [Example 10, 1-(3-((2-((4-(4-ethyl-1,4-diazepan-1-yl)phenyl)amino)-5-(trifluoromethyl)pyrimidin-4-yl)amino)propyl)piperidin-2-one], for which the IC50 lay in the range of 0.1 to 0.3 µM in the assay with ULK kinase [1], 0.001 to 0.025 µM at ULK1 kinase, 0.1 to 0.3 µM in the assay on ULK kinase [2] and 0.001 to 0.025 µM on ULK2 kinase.
Consider `CCc1cc(N2CCN(CC)CC2)ccc1Nc1ncc(C(F)(F)F)c(NCCCN2CCCCC2=O)n1` [Example 12], for which the IC50 in the assay with ULK kinase [1] is 0.01 to 0.1 µM; against ULK1 kinase, 0.001 to 0.025 µM; in the assay on ULK kinase [2], 0.01 to 0.1 µM; on ULK2 kinase, 0.001 to 0.025 µM.
In the case of `CCN1CCN(c2ccc(Nc3ncc(C(F)(F)F)c(NCCCN4CCCCC4=O)n3)c(C3CC3)c2)CC1` [Example 13], the IC50 lay in the range of 0.01 to 0.1 µM in the assay with ULK kinase [1], 0.001 to 0.025 µM at ULK1 kinase, 0.01 to 0.1 µM in the assay on ULK kinase [2] and 0.001 to 0.025 µM at ULK2 kinase.
As to `Cc1cc(N2CCNCC2)ccc1Nc1ncc(C(F)(F)F)c(NCCCN2CCCCC2=O)n1` [Example 16], the IC50 in the assay with ULK kinase [1] was 0.01 to 0.1 µM; at ULK1 kinase, 0.001 to 0.025 µM; with ULK kinase [2], 0.01 to 0.1 µM.
`Cc1cc(N2CCN(C(C)C)CC2)ccc1Nc1ncc(C(F)(F)F)c(NCCCN2CCCCC2=O)n1` [Example 17]: on ULK1 kinase, the IC50 was in the range of 0.001 to 0.025 µM.
As for `CCN1CCN(c2ccc(Nc3ncc(C(F)(F)F)c(NCCCN4CCCCC4=O)n3)c(C)c2)CC1` [Example 19], the IC50 is 0.1 to 0.3 µM in the assay with ULK kinase [1], 0.001 to 0.025 µM on ULK1 kinase, 0.1 to 0.3 µM with ULK kinase [2] and 0.025 to 0.1 µM at ULK2 kinase.
Consider `Cc1cc(N2CCN(C3CCC3)CC2)ccc1Nc1ncc(C(F)(F)F)c(NCCCN2CCCCC2=O)n1` [Example 21], for which the IC50 with ULK kinase [1] is 0.3 to 0.6 µM; against ULK1 kinase, 0.001 to 0.025 µM; in the assay on ULK kinase [2], 0.1 to 0.3 µM; on ULK2 kinase, 0.001 to 0.025 µM.
With `Cc1cc(N2CCN(C3CC3)CC2)ccc1Nc1ncc(C(F)(F)F)c(NCCCN2CCCCC2=O)n1` [Example 22], the IC50 on ULK1 kinase lay within 0.001 to 0.025 µM; on ULK2 kinase, 0.1 to 0.5 µM.
In the case of `CCc1cc(N2CCOCC2)ccc1Nc1ncc(Cl)c(NCCCN2CCCOCC2=O)n1` [Example 57], the IC50 with ULK kinase [1] is more than 0.6 µM; at ULK1 kinase, more than 0.5 µM; at ULK2 kinase it was more than 0.5 µM.
Turning to `O=C1COCCCN1CCCNc1nc(Nc2ccc(N3CCOCC3)cc2C2CC2)ncc1Cl` [Example 59], the IC50 against ULK1 kinase and on ULK2 kinase was more than 0.5 µM in each case.
In the case of `Cc1cc(N2CCN(C)CC2)ccc1Nc1ncc(C(F)(F)F)c(NCCCN2CCOCCC2=O)n1` [Example 65], the IC50 lay within 0.01 to 0.1 µM in the assay on ULK kinase [1], 0.001 to 0.025 µM at ULK1 kinase, 0.1 to 0.3 µM in the assay with ULK kinase [2] and 0.025 to 0.1 µM on ULK2 kinase.
Regarding `CCc1cc(N2CCN(C)CC2)ccc1Nc1ncc(C(F)(F)F)c(NCCCN2CCOCCC2=O)n1` [Example 66], the values for the IC50 at LRRK2 kinase and at ULK2 kinase were 0.1 to 0.3 µM and 0.025 to 0.1 µM, respectively.
With `O=C1CCOCCN1CCCNc1nc(Nc2ccc(N3CCOCC3)cc2C2CC2)ncc1C(F)(F)F` [Example 71], the results for the IC50 against ULK1 kinase, in the assay with ULK kinase [2] and on ULK2 kinase were 0.001 to 0.025 µM, more than 0.6 µM and more than 0.5 µM, respectively.
As for `CCc1cc(N2CCOCC2)ccc1Nc1ncc(C(F)(F)F)c(NCCCN2CCOCCC2=O)n1` [Example 72], the IC50 on ULK1 kinase is 0.025 to 0.1 µM; in the assay on ULK kinase [2] it was 0.3 to 0.6 µM; at ULK2 kinase, more than 0.5 µM.
In the case of `Cc1cc(N2CCN(C)CC2)ncc1Nc1cc(NCCCN2CCCCC2=O)c(C(F)(F)F)cn1` [Example 95], the IC50 against ULK1 kinase was 0.1 to 0.5 µM; on ULK2 kinase, more than 0.5 µM.
For `Cc1cc(N2CCOCC2)ncc1Nc1cc(NCCCN2CCCCC2=O)c(C(F)(F)F)cn1` [Example 96] the same measures were more than 0.5 µM and more than 0.5 µM.
